Assay results published in patent publication US9815849B2, “Compositions and methods for treating leukemia” (Dana-Farber Cancer Institute, Inc., priority 2010, dated 2017).
“Also recorded” adds a separate entry of the source.

What was measured:
[1] = Pharmacokinetic study of (+)-JQ1 in mice (plasma, LCMS-MS); type: in vivo
Protocol: FIG. 29A includes a table of pharmacokinetic data and measured parameters. […] Data represent mean measurements and error bars indicate the standard deviation, both from triplicate independent measurements. Plasma concentrations of drug above the biologically active concentration observed in vitro (100 nM; horizontal red line) are observed for more than 10 hours by extrapolation.

primary AMLs = assay: cells; conditions: Homo sapiens, read-out: IC50, growth-suppressive activity
Protocol: Primary leukemic cells were obtained from peripheral blood (PB) or bone marrow (BM) aspirate samples of 12 (untreated) patients with AML at diagnosis (n=10) or at relapse (n=2). […] Mononuclear cells (MNC) were prepared using Ficoll and stored in liquid nitrogen until used. […] HL60 and MOLM13 cell lines were included as controls (German Collection of Microorganisms and Cell Cultures, DSMZ, Braunschweig, Germany).
Filters were air-dried, and the bound radioactivity was measured in a β-counter (Top-Count NXT, Packard Bioscience). All experiments were performed in triplicates.

[2] = Tolerability and normal hematopoiesis in healthy mice after 20 days of JQ1; type: in vivo, C57BL/6 mice
Source text: Peripheral blood was collected by submandibular bleeding and analyzed using a Hemavet 950 analyzer (Drew Scientific). Values represent average values of 3 replicate mice; error bars indicate s.e.m.
Representative images are shown.
FIG. 17B includes graphs showing the percentage of total bone marrow cells staining for the indicated antibodies. (n=3). Error bars indicate s.e.m.
Paraffin embedded sections were stained with hematoxylin & eosin (H&E). Photographs were taken on a Nikon Eclipse 80i microscope with a Nikon Digital Sight camera using NIS-Elements F2.30 software at a resolution of 2560×1920. Using Adobe Photoshop CS2, images were re-sized and set at a resolution of 300 pixels/inch, autocontrast was applied, and unsharp mask was used to improve image clarity.

[3] = system: AML1-ETO9a/Nras^G12D/p53^−/− AML; assay: AML1-ETO9a/NrasG12D/p53-/- AML mouse model, JQ1 treatment; type: in vivo, mice; conditions: 50 mg/kg/d, treatment started after disease onset
Source text: FIG. 14A is a schematic showing the experimental strategy. p53^−/− HSPCs were cotransduced with AML1-ETO9a and Luciferase-IRES-NrasG12D constructs, followed by transplantation of cells into a sublethally irradiated recipient mouse. With high-penetrance, mice succumb to AML as has been described previously (Dick, J. E., Blood 2008; 112:4793-807). Splenic leukemia material derived from moribund mice was transplanted into secondary recipient animals. […] FIG. 14B includes bioluminescent images of leukemic mice at indicated timepoints. […] Shown are mean values of 8 mice in each treatment group, error bars represent s.e.m, p-values were calculated using a two-tailed Student's paired t-test.

Brd4 = Brd4 (Mus musculus, UniProt Q9ESU6); conditions: MLL-AF9/Nras^G12D leukemia cells
Protocol: ChIP assays were performed exactly as described (Filippakopoulos et al.). […] All results were quantified by qPCR performed using SYBR green (ABI) on an ABI 7900HT. Each IP signal was referenced to an input standard curve dilution series (IP/Input) to normalize for differences in starting cell number and for primer amplification efficiency.

AML lines = assay: BrdU cell cycle analysis and apoptosis measurement in AML lines; type: cell-based; conditions: all tested AML lines
Protocol: BrdU incorporation assays were performed according to the manufacturer's protocol (BD, APC BrdU Flow Kit, #552598), where cells were pulsed with BrdU for 30 min. Cells were co-stained with 7-AAD or DAPI for DNA content measurement. For all conditional shRNA experiments, the analysis was gated on shRNA+/dsRed+ cell populations. Annexin V staining for apoptosis was performed according to manufacturer's protocol (BD Biosciences, APC Annexin V, #550475). In FIG. 4e, Annexin V gating was performed on live cells (FSC/SCC) and dsRed+/shRNA+ population, to ensure a clear readout of shRNA effects. […] All analyses were performed using Flowjo software.

Myc [4] = assay: Myc levels in MEF or G1E cells; type: cell-based, mouse
Protocol: (§1) RNA was prepared using Trizol® reagent (Invitrogen, Carlsbad, Calif.). cDNA synthesis was performed using gScript™ cDNA SuperMix (Quanta Biosciences, Gaithersburg, Md., #101414-106). Quantitative PCR (qPCR) analysis was performed on an ABI™ 7900HT with Sybr green (ABI, Carlsbad, Calif., #4364344). All signals were quantified using the delta-Ct method. All signals were normalized to the levels of GAPDH.

Hoxa7, Hoxa9, Meis1 = assay: RT-qPCR of direct MLL-AF9 target genes; type: cell-based, mouse; conditions: JQ1 treatment of leukemia cells
Source text: FIGS. 30A-30C show the broadly overlapping transcriptional effects elicited upon suppressing Brd4, Myb, and MLL-AF9 with downregulation of Myc upon suppressing any of the three factors. FIG. 30A includes GSEA plots evaluating transcriptional signatures downstream of MLL-AF9 and Myb. […] The 500 gene cutoff corresponds to a Log2 fold-change of −1.17 for Myb and −1.77 for MLL-AF9. FIG. 30B includes a heat map representation of Myc expression in the indicated microarray replicates. Log2 fold-change and adj.P.Val were calculated using Limma algorithm, implemented using Bioconductor. FIG. 30C includes a graph showing RT-qPCR results. […] Error bars represent s.e.m.
as §1

Myc [5] = assay: Myc RT-qPCR and Western blot in leukemia cells; type: cell-based, mouse
Protocol: FIG. 20D includes a graph showing RT-qPCR results. […] FIG. 20E includes a graph showing ChIP-qPCR results. […] TSS=transcription start site. […] (n=3). […] Representative images taken at 40× objective are shown. All error bars shown represent s.e.m.
For Brd4 Western blots, 30 μg of whole cell lysate RIPA extract (25 mM Tris pH7.6, 150 mM NaCl, 1% NP-40, 1% Sodium deoxycholate, 0.1% SDS) was loaded into each lane. For Myc Western blots, cells were lysed directly in Laemmli buffer. About 50,000 cell equivalents were loaded in each lane. Protein extracts were resolved by SDS-PAGE electrophoresis and transferred to nitrocellulose for blotting.
as §1

[6] = system: MLL-AF9/Nras^G12D leukemia cells; assay: May-Grunwald/Giemsa cytospin morphology of leukemia cells; type: cell-based, mouse; conditions: 100 nM JQ1, 2 days
Protocol: 50,000 cells were resuspend in 100 μl FACS buffer (5% FBS, 0.05% NaN3 in PBS) cytospun onto glass slides using Shandon Cytospin 2 Centrifuge at 500 rpm for 5 min. May-Grunwald (Sigma-Aldrich, #019K4368) and Giemsa (Sigma-Aldrich, #010M4338) stainings were performed according to manufacturer's protocols. Images were collected using a Zeiss Observer Microscope with a 40× objective.

AML cell lines = assay: cells; conditions: Homo sapiens, 72 h, read-out: IC50, growth-suppressive activity (proliferation rate)
Protocol: (§2) Proliferation assays were performed by counting the increase in viable cell number over seventy-two hours. Dead cells were excluded by incubating with propidium iodide (PI). Cell concentration measurements were performed on a Guava Easycyte (Millipore, Billerica, Mass.), gating only viable cells using forward/side scatter/PI-cells. Proliferation rate was calculated using the equation: ln(cell concentration72 h/cell concentration0 h)/72. Relative proliferation rate was calculated by normalizing to rate of DMSO-treated cells.

[7] = system: MLL-AF9/Nras^G12D leukemia; assay: MLL-AF9/NrasG12D leukemia transplant model, JQ1 treatment; type: in vivo, mice
Source text: FIG. 12A includes bioluminescent images of mice administered doxycycline upon disease onset, i.e., six days post-transplant. Day zero is the first day of doxycycline administration. FIG. 12B includes a graph showing the quantification of bioluminescent imaging responses following doxycycline administration. Shown are mean values of four replicate mice. FIG. 12C includes a graph showing Kaplan-Meier survival curves of recipient mice transplanted with the indicated TRMPV-shRNA leukemia cell line. The period of doxycycline administration is indicated by an arrow. Statistical significance relative to shRNAs that target Renilla luciferase (shRen) was calculated using a Log-rank test; *p=0.0001, **p<0.0001. FIG. 12D includes flow cytometry of donor-derived (CD45.2-positive) bone marrow cells in terminally diseased doxycycline-administered mice. Gate shown includes dsRed-positive/shRNA-positive cells. FIG. 12E includes a graph showing the quantification of dsRed-positive/shRNA-positive percentage in CD45.2-positive terminal leukemia burden. […] Shown are mean values of 6 DMSO- and 7 JQ1-treated mice. p-values were calculated using a two-tailed Student's paired t-test. […] Statistical significance was calculated using a Log-rank test. […] Shown are mean values of 6 DMSO- and 7 JQ1-treated mice. p-values were calculated using a two-tailed Student's paired t-test. […]
Mice were transplanted with 1 million leukemia cells, followed by treatment initiation on day 4 (when disease becomes visible by imaging). FIG. 13B includes a graph showing quantitation of the bioluminescent images. […] Statistical significance was calculated using a Log-rank test. […] Statistical significance was calculated using a Log-rank test.
For whole body bioluminescent imaging mice were intraperitoneally injected with 50 mg/kg D-Luciferin (Goldbio, St. Louis, Mo.), and after 10 min. analyzed using an IVIS® Spectrum system (Caliper LifeSciences, Waltham, Mass.). Quantification was performed using Living Image software (Caliper LifeSciences) and standardized rectangular region of interests covering the mouse trunk and extremities. […]

[8] = system: non-AML leukemia and solid tumor cell lines; assay: Proliferation assay of non-AML leukemia and solid tumor cell lines; type: cell-based, human; conditions: other tested non-AML leukemia and solid tumor cell lines
Protocol: as §2

[9] = system: primary MLL-rearranged pediatric leukemias; assay: Pediatric primary leukemia sample analysis (WST-1, 72 h); type: cell-based, human; conditions: 3/3 tested primary MLL-rearranged pediatric leukemias
Source text: Diagnostic bone marrow samples were collected under institutional review board-approved protocols from newly diagnosed children with acute leukemia. Informed consent was obtained in accordance with the Helsinki protocol. At the time of collection, primary leukemic cells were enriched by density centrifugation using Ficoll-Paque PLUS (GE Healthcare, Piscataway, N.J.) and subsequently stored in liquid nitrogen. Vials of cryopreserved cells were thawed, resuspended in media, and live leukemic cells were enriched by density centrifugation. Cells were maintained in supplemented media with 20% fetal bovine serum. All leukemia cell cultures were incubated at 37° C. in 5% CO2.
WST-1 assays were performed in triplicate.

[10] = system: mouse MLL-fusion leukemia cells; assay: Proliferation assay of mouse leukemia cells versus fibroblasts and G1E; type: cell-based; conditions: as compared to fibroblasts and G1E
Protocol: as §2

[11] = daily injections of JQ1 50 mg/kg vs vehicle

## Cc1sc2c(c1C)C(c1ccc(Cl)cc1)=N[C@@H](CC(=O)OC(C)(C)C)c1nnc(C)n1-2 [(+)-JQ1, (S)-tert-Butyl 2-(4-(4-chlorophenyl)-2,3,9-trimethyl-6H-thieno[3,2-f][1,2,4]triazolo[4,3-a][1,4]diazepin-6-yl)acetate]
[1]; 50 mg/kg intraperitoneal, by extrapolation
  time with plasma concentration above the biologically active concentration observed in vitro (100 nM): more than 10 hours
[1]; mouse, plasma, ip, single intraperitoneal injection 50 mg/kg, adult C1 male mice, read-out: peak plasma concentration (Cmax)
  Cmax: > 20 µM
[1]; mouse, plasma, ip, single intraperitoneal injection 50 mg/kg, adult C1 male mice, read-out: total drug exposure (AUC)
  AUC: > 20 µg·h/mL

## Cc1sc2c(c1C)C(c1ccc(Cl)cc1)=NC(CC(=O)OC(C)(C)C)c1nnc(C)n1-2 (racemic) [JQ1, tert-Butyl 2-(4-(4-chlorophenyl)-2,3,9-trimethyl-6H-thieno[3,2-f][1,2,4]triazolo[4,3-a][1,4]diazepin-6-yl)acetate]
Primary AMLs
  IC50: < 0.5 µM
[2]; 50 or 100 mg/kg/d intraperitoneal for 20 days
  impact on normal hematopoiesis: little if any impact on normal hematopoiesis; also recorded: minimal impact on normal hematopoiesis
[2]; daily intraperitoneal 50 mg/kg or 100 mg/kg for 20 days
  H&E histopathology of sternal bone marrow: normal cellularity and normal mixed hematopoiesis
[2]; mice
  tolerability: well-tolerated
[3]
  activity in established disease: single-agent anti-leukemia activity
Brd4
  focal Brd4 occupancy ~2 kilobases upstream of the Myc promoter: eliminated
AML lines
  cell-cycle arrest and apoptosis: universally triggered cell-cycle arrest and apoptosis
Myc [4]
  effect on Myc levels: minimal effects
Hoxa7, Hoxa9, Meis1
  expression of Hoxa7, Hoxa9, or Meis1: does not influence expression
[1]; in rodents
  half-life: about one
Myc [5]; 250 nM JQ1, MLL-AF9/Nras^G12D leukemia cells
  time to downregulation of Myc mRNA levels: ≤ 60 min
Myc [5]; mouse MLL-AF9/Nras^G12D leukemia cells
  Myc mRNA and protein levels: dramatic reduction in Myc mRNA levels and Myc protein levels
[6]
  cell morphology (differentiation): macrophage-like appearance
AML cell lines
  IC50: < 0.5 µM
[7]; [11]
  disease progression (bioluminescent imaging): marked delay in disease progression
  survival: significantly extended survival
[7]; established MLL-AF9/NrasG12D leukemia, 50 or 100 mg/kg/d
  activity in established disease: single-agent activity in the setting of established disease
[8]
  sensitivity to the compound: minimal sensitivity
[9]
  sensitivity to JQ1: highly sensitive
[10]
  proliferation sensitivity: strikingly sensitive to sub-micromolar JQ1 concentrations
